Experimental data published in patent publication US6462064B1, “Apoptosis inducing adamantyl derivatives and their usage as anti-cancer agents, especially for cervical cancers and dysplasias” (Galderma Research & Development S.N.C., priority 1996, dated 2002).
Entries after “also recorded” stand apart in the source; their conditions may differ.

system: cancer cells; experiment: List of active compounds: types of cancers and precancers active against; assay type: cell-based
From the text: As discussed, the adamantyl retinoid derivatives according to the invention which induce apoptosis are useful for treating many different types of cancers.

SMILES	Types of Cancers and Precancers Active Against
CC(=O)OCc1ccc(-c2ccc3cc(C(=O)O)ccc3c2)cc1C12CC3CC(CC(C3)C1)C2 [Compound 5, 6-[3-(1-adamantyl)-4-acetoxymethylphenyl]-2-naphthoic acid]	head and neck, leukemia, lung,; also recorded: lymphoma, myeloma, pancre-; also recorded: atic, skin
COc1ccc(-c2ccc3cc(C(=O)N4CCNCC4)ccc3c2)cc1C12CC3CC(CC(C3)C1)C2 [Compound 7, N-{6-[3-(1-adamantyl)-4-methoxyphenyl]-2-naphthalenecarboxoyl}piperizide]	brain, breast, head and neck,; also recorded: myeloma, prostate, skin
COc1ccc(C(=O)C#Cc2ccc(C(=O)O)cc2)cc1C12CC3CC(CC(C3)C1)C2 [Compound 8, 4-{3-oxo-3-[3-(1-adamantyl)-4-methoxyphenyl]-1-propynyl}benzoic acid]	brain, breast, leukemia, lung,; also recorded: lymphoma, skin, liver
COc1cc(NC(=O)c2ccc(OC)c(C34CC5CC(CC(C5)C3)C4)c2)ccc1C(=O)O [Compound 9, 4-[N-(3-(1-adamantyl)-4-methoxybenzoyl)amido]2-methoxybenzoic acid]	head and neck, kidney, ovarian, and skin
COc1ccc(-c2nc3ccc(C)cc3[nH]2)cc1C12CC3CC(CC(C3)C1)C2 [Compound 10, 2-[3-(1-adamantyl)-4-methoxyphenyl]-5-methylbenzimidazole]	leukemia, lymphoma, myeloma
O=C(O)c1ccc2cc(-c3ccc(C(O)CO)c(C45CC6CC(CC(C6)C4)C5)c3)ccc2c1 (centres unmarked) [Compound 11, 6-[3-(1-adamantyl)-4-(1,2-dihydroxyethyl)phenyl]-2-naphthoic acid]	brain, breast, leukemia,; also recorded: pancreatic, skin
Cc1cc(O)c(C23CC4CC(CC(C4)C2)C3)cc1-c1ccc2cc(C(=O)O)ccc2c1 [Compound 12, 6-[3-(1-adamantyl)-4-hydroxy-6-methylphenyl]-2-naphthoic acid]	head and neck, leukemia,; also recorded: pancreatic
COc1cc(C)c(-c2ccc3cc(C(=O)O)ccc3c2)cc1C12CC3CC(CC(C3)C1)C2 [Compound 13, 6-[3-(1-adamantyl)-4-methoxy-6-methylphenyl]-2-naphthoic acid]	brain, head and neck, leukemia,; also recorded: pancreatic
OCc1ccc2cc(-c3ccc(O)c(C45CC6CC(CC(C6)C4)C5)c3)ccc2c1 [Compound 14, 6-[3-(1-adamantyl)-4-hydroxyphenyl]-2-hydroxymethylnaphthalene]	bladder, kidney, skin
COc1ccc(COc2ccc(C(=O)O)cc2)cc1C12CC3CC(CC(C3)C1)C2 [Compound 15, 4-[3-(1-adamantyl)-4-methoxybenzyloxy]benzoic acid]	breast, leukemia, prostate
COc1ccc(-c2cc3cc(C(=O)O)ccc3o2)cc1C12CC3CC(CC(C3)C1)C2 [Compound 16, 2-[3-(1-adamantyl)-4-methoxyphenyl]-5-benzofurancarboxylic acid]	brain, breast, prostate
COC(=O)c1ccc2cc(-c3ccc(O)c(C45CC6CC(CC(C6)C4)C5)c3)ccc2c1 [Compound 17, 6-[3-(1-adamantyl)-4-hydroxyphenyl]-2-naphthoic acid methyl ester]	leukemia
COC(=O)c1cc(O)c2cc(-c3ccc(OC)c(C45CC6CC(CC(C6)C4)C5)c3)ccc2c1C [Compound 18, 1-methyl-4-hydroxy-6-[3-(1-adamantyl)-4-methoxyphenyl]-2-naphthoic acid methyl ester]	lymphoma, liver
COc1ccc(C(=O)Nc2ccc(C(=O)N3CCOCC3)cc2)cc1C12CC3CC(CC(C3)C1)C2 [Compound 19, N-{4-[N-(3-(1-adamantyl)-4-methoxybenzoyl)amido]benzoyl}morpholide]	kidney, myeloma, prostate, skin
